Measured values published in US20250376461A1, “INDAZOLE DERIVATIVES FOR TREATING TRPM3-MEDIATED DISORDERS” (Katholieke Universiteit Leuven, priority 2022, published 2025).

molecular target: T1, mouse TRPM3α2 (mTRPM3) ion channel (Mus musculus, UniProt J9SQF3); assay: TRPM3 ion channel driven Ca2+ uptake, Fluo-4 AM assay, mTRPM3alpha2 overexpressing flip-in HEK293 cells stimulated with pregnenolone sulfate (50 μM); format: cell-based; conditions: mTRPM3 overexpressing HEK293 cells stimulated with pregnenolone sulfate (50 μM), activity ranges A, B, C
T1 construct: expressed in transfected cells; host or cells: flip-in HEK293
T1 sequence (J9SQF3 1-1709 isoform J9SQF3-12): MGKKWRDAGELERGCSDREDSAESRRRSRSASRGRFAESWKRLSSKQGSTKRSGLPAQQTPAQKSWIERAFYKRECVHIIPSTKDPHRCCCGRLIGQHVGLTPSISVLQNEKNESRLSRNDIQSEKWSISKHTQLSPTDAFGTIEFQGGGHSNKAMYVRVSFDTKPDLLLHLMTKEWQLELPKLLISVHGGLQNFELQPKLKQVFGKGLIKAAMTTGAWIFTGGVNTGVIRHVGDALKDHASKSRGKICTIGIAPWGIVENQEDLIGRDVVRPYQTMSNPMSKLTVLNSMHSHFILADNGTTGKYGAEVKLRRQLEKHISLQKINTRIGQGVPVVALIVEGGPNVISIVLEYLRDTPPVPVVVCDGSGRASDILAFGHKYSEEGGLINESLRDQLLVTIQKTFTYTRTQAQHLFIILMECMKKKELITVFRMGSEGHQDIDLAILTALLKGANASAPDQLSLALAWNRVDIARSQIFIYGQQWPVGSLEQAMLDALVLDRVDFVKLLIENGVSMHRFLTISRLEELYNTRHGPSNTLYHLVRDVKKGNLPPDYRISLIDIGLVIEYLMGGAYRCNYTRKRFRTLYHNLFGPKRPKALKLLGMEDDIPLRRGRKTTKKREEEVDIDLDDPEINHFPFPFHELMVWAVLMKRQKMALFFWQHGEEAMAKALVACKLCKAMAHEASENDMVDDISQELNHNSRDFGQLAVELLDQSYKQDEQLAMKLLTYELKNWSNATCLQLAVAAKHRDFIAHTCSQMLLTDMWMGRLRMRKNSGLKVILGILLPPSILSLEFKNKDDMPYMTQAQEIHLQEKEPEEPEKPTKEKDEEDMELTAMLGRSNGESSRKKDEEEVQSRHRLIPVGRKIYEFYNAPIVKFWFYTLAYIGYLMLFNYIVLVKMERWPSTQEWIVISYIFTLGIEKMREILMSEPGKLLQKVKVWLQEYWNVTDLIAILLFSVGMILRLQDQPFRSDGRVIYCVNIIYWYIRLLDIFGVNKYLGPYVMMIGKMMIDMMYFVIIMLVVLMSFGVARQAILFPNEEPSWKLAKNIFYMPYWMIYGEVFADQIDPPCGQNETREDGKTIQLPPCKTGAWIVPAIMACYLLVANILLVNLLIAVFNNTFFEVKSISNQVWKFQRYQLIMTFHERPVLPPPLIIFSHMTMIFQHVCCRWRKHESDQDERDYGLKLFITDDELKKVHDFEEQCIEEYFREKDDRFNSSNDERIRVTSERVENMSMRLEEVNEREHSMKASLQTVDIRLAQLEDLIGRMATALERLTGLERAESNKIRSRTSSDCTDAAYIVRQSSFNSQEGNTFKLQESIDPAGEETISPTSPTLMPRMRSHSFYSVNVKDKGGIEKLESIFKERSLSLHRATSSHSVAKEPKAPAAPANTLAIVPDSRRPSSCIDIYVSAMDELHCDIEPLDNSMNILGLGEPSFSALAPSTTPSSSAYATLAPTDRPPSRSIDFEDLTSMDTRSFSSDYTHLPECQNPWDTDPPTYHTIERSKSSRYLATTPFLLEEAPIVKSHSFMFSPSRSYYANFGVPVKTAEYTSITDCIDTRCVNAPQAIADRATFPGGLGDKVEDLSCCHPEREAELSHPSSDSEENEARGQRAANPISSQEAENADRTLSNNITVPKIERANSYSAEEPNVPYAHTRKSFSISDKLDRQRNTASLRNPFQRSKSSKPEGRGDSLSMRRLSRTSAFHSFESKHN
In short: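 Ca2+ influx via mouse TRPM3α2 was opened with pregnenolone sulfate (50 μM) and tracked by Fluo-4 AM fluorescence at 485/535 nm, read directly after adding about 2000 stably transfected HEK293 cells per well to compound. IC50 values come from percent inhibition scaled to vehicle and positive-control inhibitor signals.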

**Q.** Which IC50 does the source give for CN1CCC(NC(=O)c2c3cc(OCc4cccnc4C(F)(F)F)ccc3nn2C)C1 (stereo not drawn) [Cpd 040, 2-methyl-N-(1-methylpyrrolidin-3-yl)-5-{[2-(trifluoromethyl)pyridin-3-yl]methoxy}-2H-indazole-3-carboxamide] here?
**A.** The IC50 was 1 to 20 µM.

**Q.** With Cn1nc2ccc(OCc3ccccc3)cc2c1C(=O)NC1(C(N)=O)COC1 [Cpd 041, 5-(benzyloxy)-N-(3-carbamoyloxetan-3-yl)-2-methyl-2H-indazole-3-carboxamide] as the compound, how does the IC50 read?
**A.** The IC50 was 1 to 20 µM.

**Q.** Which IC50 does the source give for CN(C)C1(CNC(=O)c2c3cc(OCc4cccnc4C(F)(F)F)ccc3nn2C)CCC1 [Cpd 042, N-{[1-(dimethylamino)cyclobutyl]methyl}-2-methyl-5-{[2-(trifluoromethyl)pyridin-3-yl]methoxy}-2H-indazole-3-carboxamide] here?
**A.** Its IC50 is 1 to 20 µM.

**Q.** How did the IC50 turn out when Cc1ncsc1COc1ccc2nn(C)c(C(=O)NC3(CO)CCC3)c2c1 [Cpd 043, N-[1-(hydroxymethyl)cyclobutyl]-2-methyl-5-[(4-methyl-1,3-thiazol-5-yl)methoxy]-2H-indazole-3-carboxamide] was run?
**A.** Its IC50 is 1 to 20 µM.

**Q.** With Cn1nccc1COc1ccc2nn(C)c(C(=O)NC3(CO)CCC3)c2c1 [Cpd 044, N-[1-(hydroxymethyl)cyclobutyl]-2-methyl-5-[(1-methyl-1H-pyrazol-5-yl)methoxy]-2H-indazole-3-carboxamide] as the compound, how does the IC50 read?
**A.** Its IC50 is 1 to 20 µM.

**Q.** For Cn1nc2ccc(OCc3ccccc3)cc2c1C(=O)NCCN1CCOC1=O [Cpd 045, 5-(benzyloxy)-2-methyl-N-[2-(2-oxo-1,3-oxazolidin-3-yl)ethyl]-2H-indazole-3-carboxamide], which IC50 is on record?
**A.** The IC50 was > 20 µM.

**Q.** Which IC50 does the source give for CN(C)C1(CNC(=O)c2c3cc(OCc4ccnn4C)ccc3nn2C)CCC1 [Cpd 046, N-{[1-(dimethylamino)cyclobutyl]methyl}-2-methyl-5-[(1-methyl-1H-pyrazol-5-yl)methoxy]-2H-indazole-3-carboxamide] here?
**A.** Its IC50 is 1 to 20 µM.

**Q.** Which IC50 does the source give for Cc1ncsc1COc1ccc2nn(C)c(C(=O)NC3(CO)CC3)c2c1 [Cpd 047, N-[1-(hydroxymethyl)cyclopropyl]-2-methyl-5-[(4-methyl-1,3-thiazol-5-yl)methoxy]-2H-indazole-3-carboxamide] here?
**A.** The IC50 was 1 to 20 µM.

**Q.** Cc1ncsc1COc1ccc2nn(C)c(C(=O)NC3(CCO)CCC3)c2c1 [Cpd 048, N-[1-(2-hydroxyethyl)cyclobutyl]-2-methyl-5-[(4-methyl-1,3-thiazol-5-yl)methoxy]-2H-indazole-3-carboxamide] was tested. Which IC50 did it give?
**A.** Its IC50 is 1 to 20 µM.

**Q.** How did the IC50 turn out when Cn1nccc1COc1ccc2nn(C)c(C(=O)NCC(C)(C)N3CCOCC3)c2c1 [Cpd 049, 2-methyl-5-[(1-methyl-1H-pyrazol-5-yl)methoxy]-N-[2-methyl-2-(morpholin-4-yl)propyl]-2H-indazole-3-carboxamide] was run?
**A.** The IC50 was > 20 µM.

**Q.** How did the IC50 turn out when Cn1nccc1COc1ccc2nn(C)c(C(=O)NC3CCN(CC(F)(F)F)C3)c2c1 (stereo not drawn) [Cpd 050, 2-methyl-5-[(1-methyl-1H-pyrazol-5-yl)methoxy]-N-[1-(2,2,2-trifluoroethyl)pyrrolidin-3-yl]-2H-indazole-3-carboxamide] was run?
**A.** The IC50 was 1 to 20 µM.

**Q.** How did the IC50 turn out when Cn1nc2ccc(OCc3ccccc3)cc2c1C(=O)NC1(CCO)CCC1 [Cpd 051, 5-(benzyloxy)-N-[1-(2-hydroxyethyl)cyclobutyl]-2-methyl-2H-indazole-3-carboxamide] was run?
**A.** Its IC50 is 1 to 20 µM.

**Q.** With Cc1ncsc1COc1ccc2nn(C)c(C(=O)NCCN3CCOC3=O)c2c1 [Cpd 053, 2-methyl-5-[(4-methyl-1,3-thiazol-5-yl)methoxy]-N-[2-(2-oxo-1,3-oxazolidin-3-yl)ethyl]-2H-indazole-3-carboxamide] as the compound, how does the IC50 read?
**A.** Its IC50 is > 20 µM.

**Q.** How did the IC50 turn out when Cn1nc2ccc(OCc3cccnc3C(F)(F)F)cc2c1C(=O)NCC1CCC(=O)N1 (stereo not drawn) [Cpd 054, 2-methyl-N-[(5-oxopyrrolidin-2-yl)methyl]-5-{[2-(trifluoromethyl)pyridin-3-yl]methoxy}-2H-indazole-3-carboxamide] was run?
**A.** The IC50 was 1 to 20 µM.

**Q.** For Cn1nccc1COc1ccc2nn(C)c(C(=O)NCCN3CCOC3=O)c2c1 [Cpd 055, 2-methyl-5-[(1-methyl-1H-pyrazol-5-yl)methoxy]-N-[2-(2-oxo-1,3-oxazolidin-3-yl)ethyl]-2H-indazole-3-carboxamide], which IC50 is on record?
**A.** The IC50 was 1 to 20 µM.
